Key:
HeLa cells [1] = assay: Confocal microscopic experiment (cell morphology, AO/EB staining); assay type: cell-based, human; conditions: 0.5 μM, 15 h incubation
Excerpt: Confocal Microscopic Experiment. By examining cell morphology using scanning confocal microscopy, the type of cell death can be recognized. The early phase of apoptosis is characterized by the formation of apoptotic bodies while the integrity of the cell membrane is maintained without cell lysis. On the contrary, necrosis is characterized by cell lysis with the internal cellular components such as DNA being exposed. Using suitable staining agents (ethidium bromide (EB) for DNA and acridine orange (AO) for cell membrane) normal, necrotic and apoptotic cells can be distinguished by laser confocal microscopy. See Chan et al., Inorg. Chem. 41:3161-3171 (2002).
The picture of the cells is depicted in FIG. 12. […] Importantly, no cellular DNA was exposed due to necrosis.

HeLa cells [2] = assay: Flow cytometry annexin V/propidium iodide apoptosis assay; assay type: cell-based, human
Excerpt: Flow cytometry: The gold(III) porphyrin-induced apoptosis of the HeLa cell line has been further examined by flow cytometry. During the early phase of apoptosis, cells lose the asymmetry of their membrane phospholipids, although the integrity of the cell membrane is maintained. A negatively charged phospholipid, named phosphatidylserine (PS), which is located in the inner part of the plasma membrane, becomes exposed to the cell surface. A phospholipid-binding protein, annexin V (green emissive upon binding), with high affinity binds preferentially to PS. Apoptotic cells therefore can be stained by annexin V before the dying cell changes its morphology and hydrolyzes its DNA. On the other hand, both DNA and the PS would be exposed for necrotic cells. In this case, propidium iodide (PI, red emissive upon binding), can be used to stain selectively the naked DNA. Therefore, both apoptotic and necrotic cells can be discriminated after adding these two staining reagents. For apoptotic cells, only annexin V would stain; for necrotic cells, both annexin V and PI would stain.
For comparison, a control cell culture experiment was performed in the absence of Complex 1a and straurosporine. […] Throughout the flow cytometric experiment, <1% of necrotic cells were observed.

C1=Cc2nc1c(-c1ccccc1)c1ccc([n-]1)c(-c1ccccc1)c1nc(c(-c3ccccc3)c3ccc([n-]3)c2-c2ccccc2)C=C1.[Au+3].[Cl-] [Complex 1a]
cell morphology (type of cell death) (HeLa cells [1]): living cells and apoptotic cells were observed | cells that underwent apoptosis (HeLa cells [2]; 6 h of incubation): 24% | cells died via apoptosis (HeLa cells [2]; 15 h of incubation): 57% | annexin V emission (HeLa cells [2]; after treatment (Complex 1a 6 and 15 h; straurosporine 15 h)): the magnitude of the annexin V emission was enhanced | necrotic cells (HeLa cells [2]; throughout the flow cytometric experiment): < 1%

— patent publication US20040063681A1, “Methods for using gold (III) complexes as anti-tumor and anti-HIV agents” (priority 2002, published 2004)
